# Laboratory results as given in ChEMBL document CHEMBL1201862, “PubChem BioAssay data set” (2004).
#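 In this assay, cells in 96-well plates receive the compound at five concentrations for 48 hours. Endpoints are linearly interpolated between the surrounding concentrations. GI50 marks 50% less growth.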 Active and inactive are the calls of the source. Cut-off read from the data, not from the text of the source: active = GI50 up to about 1.1 µM and inactive = higher.
# What was measured:
# Assay in all cases: DTP human tumour cell line panel, 48 h
# U-251 = test system: U-251
# SNB-75 = test system: SNB-75
# ACHN = test system: ACHN
# SNB-19 = test system: SNB-19
# EKVX = test system: EKVX
# SK-MEL-5 = test system: SK-MEL-5
# MDA-MB-231 = test system: MDA-MB-231
# OVCAR-4 = test system: OVCAR-4
# BT-549 = test system: BT-549
# NCI-H460 = test system: NCI-H460
# COLO 205 = test system: COLO 205
# RPMI-8226 = test system: RPMI-8226
# HCT-116 = test system: HCT-116
# T47D = test system: T47D
# CAKI-1 = test system: CAKI-1
# HCT-15 = test system: HCT-15
# PC-3 = test system: PC-3
# SR = test system: SR
# NCI-H226 = test system: NCI-H226
SMILES,GI50 (U-251),GI50 (SNB-75),GI50 (ACHN),GI50 (SNB-19),GI50 (EKVX),GI50 (SK-MEL-5),GI50 (MDA-MB-231),GI50 (OVCAR-4),GI50 (BT-549),GI50 (NCI-H460),GI50 (COLO 205),GI50 (RPMI-8226),GI50 (HCT-116),GI50 (T47D),GI50 (CAKI-1),GI50 (HCT-15),GI50 (PC-3),GI50 (SR),GI50 (NCI-H226)
O=C(O)c1cc2ccccc2c(S(=O)(=O)O)c1O,> 100 µM (inactive),> 100 µM (inactive),> 100 µM (inactive),> 100 µM (inactive),> 100 µM (inactive),> 100 µM (inactive),> 100 µM (inactive),> 100 µM (inactive),> 100 µM (inactive),> 100 µM (inactive),> 100 µM (inactive),> 100 µM (inactive),> 100 µM (inactive),> 100 µM (inactive),> 100 µM (inactive),> 100 µM,> 100 µM (inactive),,
O=C(O)/C=C/C(=O)O [FUMARIC ACID],> 100 µM (inactive),> 100 µM (inactive),> 100 µM (inactive),> 100 µM (inactive),> 100 µM (inactive),> 100 µM (inactive),> 100 µM (inactive),> 100 µM (inactive),,> 100 µM (inactive),> 100 µM (inactive),> 100 µM (inactive),> 100 µM (inactive),> 100 µM (inactive),> 100 µM (inactive),> 100 µM,> 100 µM (inactive),> 100 µM (inactive),> 100 µM (inactive)
OC(c1ccccc1)c1c(-c2ccccc2)[nH]c(-c2ccccc2)c1C(O)c1ccccc1 (configuration not stated),3.78 µM (inactive),,3.17 µM (inactive),3.56 µM (inactive),3.21 µM (inactive),2.55 µM (inactive),,< 0.01 µM (active),,3.06 µM (inactive),1.74 µM (inactive),2.09 µM (inactive),2.84 µM (inactive),4.86 µM (inactive),2.55 µM (inactive),3.76 µM,2.54 µM (inactive),4.1 µM (inactive),2.4 µM (inactive)
CC(C)C1SCc2nc3ccccc3n21 (configuration not stated),51.4 µM (inactive),,19.7 µM (inactive),51.8 µM (inactive),32.4 µM (inactive),16.4 µM (inactive),24.2 µM (inactive),27.4 µM (inactive),,46.3 µM (inactive),12.7 µM (inactive),31.5 µM (inactive),30.6 µM (inactive),58.1 µM (inactive),40.1 µM (inactive),50.1 µM,13.2 µM (inactive),,< 0.01 µM (active)
